Assay results reported in PubChem BioAssay (NCI).
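A five-concentration, 48-hour dose response in 96-well plates underlies each endpoint, interpolated linearly between surrounding concentrations. GI50: concentration for 50% inhibition of growth. TGI is the concentration that stops growth completely.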

Legend:
Assay in all cases: NCI-60 cell line screen, 48 h
[1] = tested on: ACHN renal
[2] = tested on: HCT-15 colon
[3] = tested on: MDA-MB-231 breast
[4] = tested on: UACC-257 melanoma
[5] = tested on: EKVX NSCLC
[6] = tested on: UACC-62 melanoma
[7] = tested on: SK-MEL-28 melanoma
[8] = tested on: OVCAR-8 ovarian

Row | SMILES | GI50 [1] | TGI [1] | GI50 [2] | TGI [2] | GI50 [3] | TGI [3] | GI50 [4] | TGI [4] | GI50 [5] | TGI [5] | GI50 [6] | TGI [6] | GI50 [7] | TGI [7] | GI50 [8] | TGI [8]
1 | OCc1c(-c2cccs2)oc(-c2cccs2)c1CO | 23.8 µM | 72.1 µM | 40.1 µM | > 100 µM | 47.3 µM | 94 µM | 56.1 µM | > 100 µM | 34.6 µM | > 100 µM | 35.3 µM | > 100 µM | > 100 µM | > 100 µM | 50.7 µM | > 100 µM
2 | CCN1C(=O)N(CC)C2C1NN=c1s/c(=C3\C(=O)Nc4ccccc43)c(=O)n12 (configuration not stated) | 0.606 µM | > 47.6 µM | 0.41 µM | > 100 µM | 2.41 µM | 49.9 µM | 25.2 µM | > 100 µM | 2.12 µM | > 100 µM | 0.371 µM | 23.9 µM | 0.891 µM | > 100 µM | 0.639 µM | > 53.7 µM
3 | Cc1cc(NC(=O)NCCOc2ccc(N3C(N)=NC(N)=NC3(C)C)cc2Cl)ccc1S(=O)(=O)F | 25 µM | > 100 µM | 49 µM | > 100 µM | 6.11 µM | > 77.9 µM | 4.1 µM | > 49.1 µM | – | – | 0.726 µM | 35.2 µM | 3.59 µM | > 91.7 µM | 4.91 µM | > 100 µM
4 | Cc1cccc(CNc2c3ccccc3nc3ccccc23)c1 | 1.52 µM | 3.47 µM | 1.83 µM | 4.59 µM | 1.65 µM | 4.07 µM | 2.11 µM | 5.05 µM | 2.31 µM | 8.97 µM | 1.61 µM | 3.48 µM | 1.89 µM | 4.07 µM | 2.48 µM | 9.82 µM
5 | CN(C)Cc1ccc(NC(=O)c2cncc(C#Cc3cnc(N)c4ncccc34)c2)cc1C(F)(F)F | 1.52 µM | 2.89 µM | 1.5 µM | 3.1 µM | 1.07 µM | 2.36 µM | 0.673 µM | 2.53 µM | 1.71 µM | 3.36 µM | 1.19 µM | 2.53 µM | 0.161 µM | 1.43 µM | 1.82 µM | 3.85 µM
6 | O=C1OC(c2ccc([N+](=O)[O-])cc2)=N/C1=C\c1ccc(Cl)cc1 | – | > 100 µM | – | > 100 µM | – | > 100 µM | – | > 100 µM | – | > 100 µM | – | > 100 µM | – | > 100 µM | – | > 100 µM
7 | COc1ccc(C2=C(c3ccc(OC)cc3)C(=O)OC2)cc1 | 2.72 µM | 23.4 µM | 0.514 µM | 8.27 µM | 5.15 µM | > 39.3 µM | 40.1 µM | > 100 µM | 16.1 µM | > 100 µM | 1.3 µM | 20.6 µM | 6.29 µM | > 100 µM | 1.35 µM | > 52.3 µM
8 | COc1ccc(-n2cc(-c3cc(OC)c(OC)c(OC)c3)nc2SCc2cccc(C#N)c2)cc1OC | > 100 µM | > 100 µM | > 100 µM | > 100 µM | > 100 µM | > 100 µM | – | – | > 100 µM | > 100 µM | > 100 µM | > 100 µM | 16.8 µM | > 100 µM | – | –
9 | CC(=O)c1cc2c(Br)cccc2oc1=O | – | > 100 µM | – | > 100 µM | – | > 100 µM | – | > 100 µM | – | > 100 µM | – | > 100 µM | – | > 100 µM | – | > 100 µM
10 | COc1ccc(-c2nc(NC(=O)CS(=O)(=O)c3ccc(F)cc3)sc2C)cc1 | 30 µM | > 100 µM | 12.5 µM | > 100 µM | 23.2 µM | > 100 µM | – | – | – | – | 13.1 µM | 32.9 µM | 20.1 µM | 62 µM | 24.1 µM | 89.3 µM
11 | Nc1c(C(=O)c2cccc(-c3cccnc3)c2)cnn1-c1ccc(F)cc1 | > 25 µM | > 25 µM | > 25 µM | > 25 µM | > 25 µM | > 25 µM | > 25 µM | > 25 µM | – | – | > 25 µM | > 25 µM | > 25 µM | > 25 µM | > 13.9 µM | > 25 µM
12 | O=S(=O)(F)Cc1ccccc1 | – | > 100 µM | – | > 100 µM | – | > 100 µM | – | > 100 µM | – | > 100 µM | – | > 100 µM | – | > 100 µM | – | > 100 µM
13 | COC(=O)c1csc(-c2csc(CCNC(=O)OC(C)(C)C)n2)n1 | – | > 100 µM | – | > 100 µM | – | – | – | > 100 µM | – | > 100 µM | – | > 100 µM | – | > 100 µM | – | > 100 µM
14 | CN(C)S(=O)(=O)c1cccc(C(=O)Nc2nc(-c3ccc(F)c(F)c3)cs2)c1 | 10.5 µM | > 100 µM | > 40.4 µM | > 100 µM | 20.6 µM | > 100 µM | 6.24 µM | > 100 µM | 4 µM | > 76.2 µM | 7.81 µM | > 100 µM | 18.8 µM | > 100 µM | 8.28 µM | > 100 µM
15 | O=C1/C(=C/c2ccc(F)cc2)COc2ccc(O)c(O)c21 | 1.43 µM | 2.89 µM | 0.755 µM | 5.85 µM | 1.43 µM | 6.25 µM | 2.99 µM | 17.7 µM | 3.29 µM | 18.4 µM | 2.1 µM | 6.98 µM | 2.27 µM | 5.91 µM | 2.16 µM | > 100 µM
16 | CN(C)CCNC(=O)c1ccc2c(c1)oc1cc3ccccc3c(=O)n12 | 12.5 µM | 26 µM | 12.8 µM | 31.4 µM | 13 µM | 27.9 µM | 21.7 µM | 37.5 µM | 18.1 µM | 36.6 µM | 17.4 µM | 33.8 µM | – | – | 19.4 µM | 42.5 µM
17 | O=CNC(Cc1cnc[nH]1)C(=O)O (configuration not stated) | – | > 100 µM | – | > 100 µM | – | > 100 µM | – | > 100 µM | – | > 100 µM | – | > 100 µM | – | > 100 µM | – | > 100 µM
